Laboratory results: US20020028836A1, “Potassium channel openers” (priority 2000, published 2002)
Read-outs that look alike come from different tables or passages of the source.

Legend:
[1] = test system: primary cultured guinea-pig urinary bladder (GPB) cells; experiment: Membrane hyperpolarization (MHP) assay, DiBAC(4)3 / FLIPR; assay type: cell-based; settings: for EC50: concentration that elicits 50% of the maximal response for the test sample; for Maximal Response (% P1075) / Emax: maximal steady-state hyperpolarization, normalized to response with 10 μM P1075 (100%)
Description: Compounds were evaluated for potassium channel opening activity using primary cultured guinea-pig urinary bladder (GPB) cells.
For the preparation of urinary bladder smooth muscle cells, urinary bladders were removed from male guinea-pigs (Hartley, Charles River, Wilmington, Mass.) weighing 300-400 g and placed in ice-cold Ca^2+-free Krebs solution (Composition, mM: KCl, 2.7; KH2PO4, 1.5; NaCl, 75; Na2HPO4, 9.6; Na2HPO4.7H2O, 8; MgSO4, 2; glucose, 5; HEPES, 10; pH 7.4). Cells were isolated by enzymatic dissociation as previously described with minor modifications (Klockner, U. and Isenberg, G., Pflugers Arch. (1985), 405, 329-339), hereby incorporated by reference. The bladder was cut into small sections and incubated in 5 mL of the Kreb's solution containing I mg/mL collagenase (Sigma, St. Louis, Mo.) and 0.2 mg/mL pronase (Calbiochem, La Jolla, Calif.) with continuous stirring in a cell incubator for 30 minutes. The mixture was then centrifuged at 1300×g for 5 minutes, and the pellet resuspended in Dulbecco's PBS (GIBCO, Gaithersburg, Md.) and recentrifuged to remove residual enzyme. The cell pellet was resuspended in 5 mL growth media (composition: Dulbecco's modified Eagle's medium supplemented with 10% fetal bovine serum, 100 units/mL penicillin, 100 units/mL streptomycin and […] amphotericin B) and further dissociated by pipetting the suspension through a flame-polished Pasteur pipette and passing it through a polypropylene mesh membrane (Spectrum, Houston, Tex.). The cell density was adjusted to 100,000 cells/mL by resuspension in growth media. Cells were plated in clear-bottomed black 96-well plates (Packard) for membrane potential studies at a density of 20,000 cells/well and maintained in a cell incubator with 90% air: 10% CO2 until confluent. Cells were confirmed to be of smooth muscle type by cytoskeletal staining using a monoclonal mouse anti human-α-smooth muscle actin (Biomeda, Foster City, Calif.).
Functional activity at potassium channels was measured by evaluating changes in membrane potential using the bis-oxonol dye DiBAC(4) (Molecular Probes) in a 96-well cell-based kinetic assay system, Fluorescent Imaging Plate Reader (FLIPR) (K. S. Schroeder et al., J. Biomed. Screen., v. 1 pp. 75-81 (1996)), hereby incorporated by reference. DiBAC(4)3 is an anionic potentiometric probe which partitions between cells and extracellular solution in a membrane potential-dependent manner. With increasing membrane potential (for example, K^+ depolarization), the probe further partitions into the cell; this is measured as an increase in fluorescence due to dye interaction with intracellular lipids and proteins. Conversely, decreasing membrane potential (hyperpolarization by potassium channel openers) evokes a decrease in fluorescence.
Confluent guinea-pig urinary bladder cells cultured in black clear-bottomed 96-well plates were rinsed twice with […] assay buffer (composition, mM: HEPES, 20; NaCl, 120; KCl, 2; CaCl2, 2; MgCl2, 1; glucose, 5; pH 7.4 at 25° C.) containing 5 μM DiBAC(4)3 and incubated with […] of the buffer in a cell incubator for 30 minutes at 37° C. to ensure dye distribution across the membrane. After recording the baseline fluorescence for 5 minutes, the reference or test compounds, prepared at 10 times the concentration in the assay buffer, were added directly to the wells. Changes in fluorescence were monitored for an additional 25 minutes. Hyperpolarization responses were corrected for any background noise and were normalized to the response observed with 10 μM of the reference compound P1075 (assigned as 100%), a potent opener of smooth muscle KATP channels (Quast et al., Mol. Pharmacol., v. 43 pp. 474-481 (1993)), hereby incorporated by reference.
Routinely, five concentrations of P1075 or test compounds (log or half-log dilutions) were evaluated and the maximal steady-state hyperpolarization values (expressed as % relative to P1075) plotted as a function of concentration. […]

[2] = test system: tissue strips obtained from Landrace pig bladders; experiment: Functional potassium channel opening activity in isolated bladder strips (field-stimulated twitch); settings: for Index: ED50 for P1075 divided by ED50 for the test agonist in a given tissue, averaged; for EC50: amount of agent necessary to cause 50% of the agent's maximal response, read-out: ED50 (the source's name); for Efficacy (% P1075) / Emax: maximal efficacy relative to P1075, field stimulation 0.05 Hz, 0.5 ms, 20 volts
Description: Compounds were evaluated for functional potassium channel opening activity using tissue strips obtained from Landrace pig bladders.
Landrace pig bladders were obtained from female Landrace pigs of 9-30 kg. Landrace pigs were euthanized with an intraperitoneal injection of pentobarbital solution, Somlethal®, J. A. Webster Inc., Sterling, Mass. The entire bladder was removed and immediately placed into Krebs Ringer bicarbonate solution (composition, mM: NaCl, 120; NaHCO3, 20; dextrose, 11; KCl, 4.7; CaCl2, 2.5; MgSO4, 1.5; KH2PO4, 1.2; K2EDTA, 0.01, equilibrated with 5% CO2/95% O2pH 7.4 at 37° C.). Propranolol (0.004 mM) was included in all of the assays to block β-adrenoceptors. The trigonal and dome portions were discarded. Strips 3-5 mm wide and 20 mm long were prepared from the remaining tissue cut in a circular fashion. The mucosal layer was removed. One end was fixed to a stationary glass rod and the other to a Grass FT03 transducer at a basal preload of 1.0 gram. Two parallel platinum electrodes were included in the stationary glass rod to provide field stimulation of 0.05 Hz, 0.5 milli-seconds at 20 volts. This low frequency stimulation produced a stable twitch response of 100-500 centigrams. Tissues were allowed to equilibrate for at least 60 minutes and primed with 80 mM KCl. A control concentration response curve (cumulative) was generated for each tissue using the potassium channel opener P1075 as the control agonist. […] After a 60 minute rinsing period, a concentration response curve (cumulative) was generated for the test agonist in the same fashion as that used for the control agonist P1075. The maximal efficacy of each compound (expressed as % relative to P1075) is reported. The amount of agent necessary to cause 50% of the agent's maximal response (ED50) was calculated using “ALLFIT” (DeLean et al., Am. J. Physiol., 235, E97 (1980)), hereby incorporated by reference. Agonist potencies were also expressed as an index relative to P1075. The index was calculated by dividing the ED50 for P1075 by the ED50 for the test agonist in a given tissue. Each tissue was used for only one test agonist, and the indices obtained from each tissue were averaged to provide an average index of potency.

In the case of Cc1ccc(C(=O)NC(NC(=NC#N)Nc2cccnc2)C(C)(C)C)cc1 (single isomer, unassigned; (+)) [Example 58, (+) N-(1-{[(cyanoimino)(3-pyridinylamino)methyl]amino}-2,2-dimethylpropyl)-4-methylbenzamide], the EC50 [1] is reported as 650 nM, the “Maximal Response (% P1075)” value [1] is reported as 87 % P1075 and the Index [2] is reported as 0.008. The EC50 [2] was 12000 nM and the “Efficacy (% P1075)” value [2] was 59 % P1075.

For CCC(CC)(CCC#N)C(NC(=O)c1ccc(Cl)cc1)NC(=NC#N)Nc1cccnc1 (single isomer, unassigned; (+)) [Example 87, (+) 4-chloro-N-(4-cyano-1-{[(cyanoimino)(3-pyridinylamino)methyl]amino}-2,2-diethylbutyl)benzamide], the EC50 [1] was 520 nM, the “Maximal Response (% P1075)” value [1] was 85 % P1075 and the Index [2] was 0.02. For the same compound, the EC50 [2] was 7600 nM and the “Efficacy (% P1075)” value [2] was 67 % P1075.

For CC1=C(CC(NC(=O)c2ccc(Cl)cc2)NC(=NC#N)Nc2cccnc2)C(C)(C)CCC1 (single isomer, unassigned; (+)) [Example 88, (+) 4-chloro-N-[1-{[(cyanoimino)(3-pyridinylamino)methyl]amino}-2-(2,6,6-trimethyl-1-cyclohexen-1-yl)ethyl]benzamide], the EC50 [1] was 220 nM, the “Maximal Response (% P1075)” value [1] was 87 % P1075 and the Index [2] was 0.074. It also gave an Emax ([2]; Sus scrofa) of 36% and an EC50 [2] of 10000 nM.

For Cc1ccc(C(=O)NC(NC(=NC#N)Nc2cccnc2)C(C)(C)C)cc1 (single isomer, unassigned; (-)) [Example 57, (−) N-(1-{[(cyanoimino)(3-pyridinylamino)methyl]amino}-2,2-dimethylpropyl)-4-methylbenzamide], the EC50 [1] was 4600 nM, the “Maximal Response (% P1075)” value [1] was 80 % P1075 and the Index [2] was 0.007. For the same compound, the EC50 [2] was 14000 nM and the “Efficacy (% P1075)” value [2] was 85 % P1075.

For CCC(CC)(CCC#N)C(NC(=O)c1ccc(Cl)cc1)NC(=NC#N)Nc1cccnc1 (single isomer, unassigned; (-)) [Example 86, (−) 4-chloro-N-(4-cyano-1-{[(cyanoimino)(3-pyridinylamino)methyl]amino}-2,2-diethylbutyl)benzamide], the EC50 [1] was 86 nM, the “Maximal Response (% P1075)” value [1] was 83 % P1075 and the Index [2] was 0.01. The EC50 [2] was 30000 nM and the “Efficacy (% P1075)” value [2] was 19 % P1075.

N#CN=C(Nc1cccnc1)NC(NC(=O)c1ccc(Cl)cc1)C(Cl)(Cl)Cl (stereo not drawn) [Example 45, 4-chloro-N-(2,2,2-trichloro-1-{[(cyanoimino)(3-pyridinylamino)methyl]amino}ethyl)benzamide] gave an EC50 ([1]; Cavia porcellus) of 40 nM and an Emax ([1]; Cavia porcellus) of 92%.

In the case of CCC(CC)(CCC#N)C(NC(=O)c1ccc(Cl)cc1)NC(=NC#N)Nc1cccnc1 (stereo not drawn) [Example 65, 4-chloro-N-(4-cyano-1-{[(cyanoimino)(3-pyridinylamino)methyl]amino}-2,2-diethylbutyl)benzamide], the Emax ([1]; Cavia porcellus) is reported as 89% and the EC50 [1] is reported as 130 nM.

Compound CC1=C(CC(NC(=O)c2ccc(Cl)cc2)NC(=NC#N)Nc2cccnc2)C(C)(C)CCC1 (stereo not drawn) [Example 66, 4-chloro-N-[1-{[(cyanoimino)(3-pyridinylamino)methyl]amino}-2-(2,6,6-trimethyl-1-cyclohexen-1-yl)ethyl]benzamide] has an Emax ([1]; Cavia porcellus) of 79% and an EC50 [1] of 82 nM.

For CCCCC(C)(C)C(NC(=O)c1ccc(Cl)cc1)NC(=NC#N)Nc1cccnc1 (stereo not drawn) [Example 94, 4-chloro-N-(1-{[(cyanoimino)(3-pyridinylamino)methyl]amino}-2,2-dimethylhexyl)benzamide], the EC50 ([1]; Cavia porcellus) was 160 nM and the Emax ([1]; Cavia porcellus) was 82%.

C=CCOCC(CC)(COCC=C)C(NC(=O)c1ccc(Cl)cc1)NC(=NC#N)Nc1cccnc1 (stereo not drawn) [Example 96, N-(2,2-bis[(allyloxy)methyl]-1-{[(cyanoimino)(3-pyridinylamino)methyl]amino}butyl)-4-chlorobenzamide] showed an EC50 ([1]; Cavia porcellus) of 240 nM and an Emax ([1]; Cavia porcellus) of 93%.

CC(Cl)(Cl)C(NC(=O)c1ccc(Cl)cc1)NC(=NC#N)Nc1ccc(F)nc1 (stereo not drawn) [Example 180, 4-chloro-N-[2,2-dichloro-1-({(cyanoimino)[(6-fluoro-3-pyridinyl)amino]methyl}amino)propyl]benzamide] gave an Index [2] of 0.040, an EC50 ([2]; Sus scrofa) of 2300 nM and an Emax ([2]; Sus scrofa) of 98%.

In the case of CC(C)(C)CC(NC(=O)c1ccc(Br)cc1)NC(=NS(=O)(=O)C(F)(F)F)Nc1cccnc1 (stereo not drawn) [Example 188, 4-bromo-N-{3,3-dimethyl-1-[((3-pyridinylamino){[(trifluoromethyl)sulfonyl]imino}methyl)amino]butyl}benzamide], the Index [2] is reported as 0.020, the EC50 ([2]; Sus scrofa) is reported as 10000 nM and the Emax ([2]; Sus scrofa) is reported as 87%.

Work on CC(C)(C)CC(NC(=O)c1ccc(C(F)(F)F)cc1)NC(=NS(=O)(=O)C(F)(F)F)Nc1cccnc1 (stereo not drawn) [Example 189, N-{3,3-dimethyl-1-[((3-pyridinylamino){[(trifluoromethyl)sulfonyl]imino}methyl)amino]butyl}-4-(trifluoromethyl)benzamide] yielded an Index [2] of 0.078, an EC50 ([2]; Sus scrofa) of 930 nM and an Emax ([2]; Sus scrofa) of 66%.

CC(Cl)(Cl)C(NC(=O)c1cccs1)NC(=NC#N)Nc1ccc(Cl)nc1 (stereo not drawn) [Example 192, N-(2,2-dichloro-1-{[[(6-chloro-3-pyridinyl)amino](cyanoimino)methyl]amino}propyl)-2-thiophenecarboxamide] gave an Index [2] of 0.019, an EC50 ([2]; Sus scrofa) of 3100 nM and an Emax ([2]; Sus scrofa) of 99%.

With CCC(C)(C)N=C(NC#N)Nc1cccnc1 [Example P1075, reference compound] the “stimulated twitch / stimulated contractions of the bladder” value ([2]; P1075: 10^−9 to 10^−5 M, cumulative, ½ log increments) was “completely eliminated the stimulated twitch”.
